What was measured:
CA1 pyramidal cells = experiment: Voltage clamp of CA1 pyramidal cells in hippocampal slices, low Mg2+; assay type: cell-based, rat; conditions: −60 mV, thrombin 30 nM, TFLLR 30 μM, with and without APV
CA1 pyramidal neurons = experiment: Ca2+ dye imaging of CA1 pyramidal neurons in hippocampal slices; assay type: cell-based, rat; conditions: thrombin 30 nM, TFLLR 30 μM, trans-ACPD 100 μM, (S)-3,5-dihydroxyphenylglycine 30 μM
Protocol: Young rats (Sprague-Dawley, age P15-P20) or mice (C57/B16, age P14-19) were deeply anesthetized with isoflurane and decapitated. The brain was rapidly removed and submerged in an ice-cold oxygenated artificial cerebrospinal fluid (ACSF) comprised of 130 mM NaCl, 24 mM NaHCO3, 3.5 mM KCl, 1.25 mM NaH2PO4, 1 mM CaCl2,3 mM MgCl2, and 10 mM glucose saturated with 95% O2/5% CO2, at pH 7.4.
The external solution contained 1 μM TTX. Throughout the experiments, −5 mV voltage steps (15 ms duration) were applied at 30 sec intervals from a holding potential of −70 mV to continuously monitor the holding current, series resistance, and membrane input resistance. After entering whole-cell mode, the CA1 pyramidal cells in slices were maintained for 20 min to allow for dye filling before image acquisition using a Princeton Micromax camera.
After the baseline period, TFLLR (30-100 μM) was applied, and images were acquired every 3 sec with a 25 ms exposure to 450-490 nm light for each image. Ca^2+-dependent fluorescence intensity (520 nm) was measured in cell bodies and processes by using Axon Imaging Workbench (v2.2.1) and expressed as ratio image of (F-Fo)/Fo, where Fo is the fluorescence intensity before drug treatment.

For thrombin, which “amplitude of inward current” value (CA1 pyramidal cells; 0.5 μM TTX, 5 μM Mg^2+) is on record?
The value was 8.8±3.1 pA.

What about the membrane current variance (CA1 pyramidal cells; TTX, low Mg^2+) of the same substance?
Its membrane current variance is 12.4±1.1 pA^2.

And the “somatic fluorescence of Ca^2+-sensitive dyes in CA1 pyramidal neurons” value (CA1 pyramidal neurons)?
The value was “no significant increase”.
